Data from US10450549B2, “Aryloxyphenoxypropionate tolerance in turfrgass species and use of AAD1 as a selectable marker” (Dow AgroSciences, LLC, priority 2004, dated 2019).

Key:
AAD1 (v3) event lines = assay: Field tolerance of pDAB3404 T1 corn to quizalofop and 2,4-D: AAD1 (v3) events; format: in vivo; details: 1120 g ae/ha
Source text: (§1) Two field trials were established at field stations in Hawaii and Indiana. […] The hybrid Hi-II×5XH571 is of the same parentage as the AAD1 (v3) event lines. The hybrid Croplan 585SR is a sethoxydim resistant line.
(§2) The experimental design was a split-plot with four replications. The main plot was herbicide treatment and the sub-plot was AAD1 (v3) event or comparison hybrid. Plots were one row by 3.7 meters with approximately twenty-five seeds planted in each row. For AAD1 events, seeds from a different lineage within the event were planted in each replicate.
(§3) Glufosinate at 560 g ai/ha was applied to AAD1 (v3) plots at the V2 stage to eliminate non-transformed plants. […] Treatments were applied using backpack broadcast boom equipment delivering 187 L/ha carrier volume at 130-200 kpa pressure.
(§4) Quizalofop treated plots were visually assessed for crop injury at one and three weeks after application (WAA) using a 0-100% scale, where 0 equals no injury and 100 equals complete death.

Non-transformed hybrids = assay: Field tolerance to quizalofop and 2,4-D: non-transformed hybrids; format: in vivo, corn; details: 1120 g ae/ha
Source text: as §1, §2, §3, §4

AAD1 (v1) = biological target: T1, AAD1 (v1) (Sphingobium herbicidovorans, UniProt Q8KSC8); assay: Colorimetric phenol detection assay of AAD1 (v1) activity (purified enzyme or E. coli extract); format: biochemical; details: for A510, AAD1 / A510, AAD1 (10x): substrate 1 mM; for A510, AAD1: 1 μg purified AAD1 (v1) per 0.16 ml assay; for A510, AAD1 (10x): 10 μg purified AAD1 (v1) per 0.16 ml assay
T1 construct: made in house; host or cells: E. coli BL-21 Star (DE3), plasmid pDAB3203
T1 sequence (Q8KSC8 whole entry): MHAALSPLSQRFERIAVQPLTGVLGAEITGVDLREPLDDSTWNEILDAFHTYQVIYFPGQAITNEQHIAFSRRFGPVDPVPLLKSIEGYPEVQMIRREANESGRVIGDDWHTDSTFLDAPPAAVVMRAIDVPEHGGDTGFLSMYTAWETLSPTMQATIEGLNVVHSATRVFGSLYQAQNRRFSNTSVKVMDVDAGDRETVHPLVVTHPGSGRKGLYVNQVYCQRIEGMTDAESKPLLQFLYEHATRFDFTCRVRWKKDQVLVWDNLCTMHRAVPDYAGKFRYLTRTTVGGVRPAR

CNC.O=C(O)COc1ccc(Cl)cc1Cl [2,4-D amine]
%Leaning 2 DAA (0-100 scale) (AAD1 (v3) event lines; HI, 3404.001): 5% | Braceroot Deformation 3-4 WAA (0-10 scale) (AAD1 (v3) event lines; HI, 3404.001): 2 | %Leaning 2 DAA (0-100 scale) (AAD1 (v3) event lines; HI, 3404.006): 0% | Braceroot Deformation 3-4 WAA (0-10 scale) (AAD1 (v3) event lines; HI, 3404.006): 0 | %Leaning 2 DAA (0-100 scale) (AAD1 (v3) event lines; HI, 3404.013): 0% | Braceroot Deformation 3-4 WAA (0-10 scale) (AAD1 (v3) event lines; HI, 3404.013): 0 | %Leaning 2 DAA (0-100 scale) (AAD1 (v3) event lines; HI, 3404.017): 0% | Braceroot Deformation 3-4 WAA (0-10 scale) (AAD1 (v3) event lines; HI, 3404.017): 0 | %Leaning 2 DAA (0-100 scale) (AAD1 (v3) event lines; HI, 3404.020): 0% | Braceroot Deformation 3-4 WAA (0-10 scale) (AAD1 (v3) event lines; HI, 3404.020): 0 | %Leaning 2 DAA (0-100 scale) (AAD1 (v3) event lines; HI, 3404.022): 0% | Braceroot Deformation 3-4 WAA (0-10 scale) (AAD1 (v3) event lines; HI, 3404.022): 0 | %Leaning 2 DAA (0-100 scale) (AAD1 (v3) event lines; HI, 3404.025): 0% | Braceroot Deformation 3-4 WAA (0-10 scale) (AAD1 (v3) event lines; HI, 3404.025): 0 | %Leaning 2 DAA (0-100 scale) (AAD1 (v3) event lines; HI, 3404.027): 0% | Braceroot Deformation 3-4 WAA (0-10 scale) (AAD1 (v3) event lines; HI, 3404.027): 0 | %Leaning 2 DAA (0-100 scale) (AAD1 (v3) event lines; HI, 3404.031): 0% | Braceroot Deformation 3-4 WAA (0-10 scale) (AAD1 (v3) event lines; HI, 3404.031): 0 | %Leaning 2 DAA (0-100 scale) (AAD1 (v3) event lines; HI, 3404.033): 0% | Braceroot Deformation 3-4 WAA (0-10 scale) (AAD1 (v3) event lines; HI, 3404.033): 0 | %Leaning 2 DAA (0-100 scale) (AAD1 (v3) event lines; HI, 3404.036): 0% | Braceroot Deformation 3-4 WAA (0-10 scale) (AAD1 (v3) event lines; HI, 3404.036): 0 | %Leaning 2 DAA (0-100 scale) (AAD1 (v3) event lines; HI, 3404.044): 0% | Braceroot Deformation 3-4 WAA (0-10 scale) (AAD1 (v3) event lines; HI, 3404.044): 1 | %Leaning 2 DAA (0-100 scale) (AAD1 (v3) event lines; HI, 3404.050): 1% | Braceroot Deformation 3-4 WAA (0-10 scale) (AAD1 (v3) event lines; HI, 3404.050): 1 | %Leaning 2 DAA (0-100 scale) (AAD1 (v3) event lines; HI, 3404.053): 0% | Braceroot Deformation 3-4 WAA (0-10 scale) (AAD1 (v3) event lines; HI, 3404.053): 0 | %Leaning 2 DAA (0-100 scale) (AAD1 (v3) event lines; HI, 3404.074): 0% | Braceroot Deformation 3-4 WAA (0-10 scale) (AAD1 (v3) event lines; HI, 3404.074): 0 | %Leaning 2 DAA (0-100 scale) (AAD1 (v3) event lines; HI, 3404.082): 0% | Braceroot Deformation 3-4 WAA (0-10 scale) (AAD1 (v3) event lines; HI, 3404.082): 1 | %Leaning 2 DAA (0-100 scale) (AAD1 (v3) event lines; IN, 3404.001): 0% | Braceroot Deformation 3-4 WAA (0-10 scale) (AAD1 (v3) event lines; IN, 3404.001): 1 | %Leaning 2 DAA (0-100 scale) (AAD1 (v3) event lines; IN, 3404.006): 0% | Braceroot Deformation 3-4 WAA (0-10 scale) (AAD1 (v3) event lines; IN, 3404.006): 0 | %Leaning 2 DAA (0-100 scale) (AAD1 (v3) event lines; IN, 3404.013): 0% | Braceroot Deformation 3-4 WAA (0-10 scale) (AAD1 (v3) event lines; IN, 3404.013): 0 | %Leaning 2 DAA (0-100 scale) (AAD1 (v3) event lines; IN, 3404.017): 1% | Braceroot Deformation 3-4 WAA (0-10 scale) (AAD1 (v3) event lines; IN, 3404.017): 0 | %Leaning 2 DAA (0-100 scale) (AAD1 (v3) event lines; IN, 3404.020): 0% | Braceroot Deformation 3-4 WAA (0-10 scale) (AAD1 (v3) event lines; IN, 3404.020): 0 | %Leaning 2 DAA (0-100 scale) (AAD1 (v3) event lines; IN, 3404.022): 1% | Braceroot Deformation 3-4 WAA (0-10 scale) (AAD1 (v3) event lines; IN, 3404.022): 0 | %Leaning 2 DAA (0-100 scale) (AAD1 (v3) event lines; IN, 3404.025): 0% | Braceroot Deformation 3-4 WAA (0-10 scale) (AAD1 (v3) event lines; IN, 3404.025): 0 | %Leaning 2 DAA (0-100 scale) (AAD1 (v3) event lines; IN, 3404.027): 3% | Braceroot Deformation 3-4 WAA (0-10 scale) (AAD1 (v3) event lines; IN, 3404.027): 0 | %Leaning 2 DAA (0-100 scale) (AAD1 (v3) event lines; IN, 3404.031): 1% | Braceroot Deformation 3-4 WAA (0-10 scale) (AAD1 (v3) event lines; IN, 3404.031): 0 | %Leaning 2 DAA (0-100 scale) (AAD1 (v3) event lines; IN, 3404.033): 0% | Braceroot Deformation 3-4 WAA (0-10 scale) (AAD1 (v3) event lines; IN, 3404.033): 0 | %Leaning 2 DAA (0-100 scale) (AAD1 (v3) event lines; IN, 3404.036): 0% | Braceroot Deformation 3-4 WAA (0-10 scale) (AAD1 (v3) event lines; IN, 3404.036): 0 | %Leaning 2 DAA (0-100 scale) (AAD1 (v3) event lines; IN, 3404.044): 1% | Braceroot Deformation 3-4 WAA (0-10 scale) (AAD1 (v3) event lines; IN, 3404.044): 0 | %Leaning 2 DAA (0-100 scale) (AAD1 (v3) event lines; IN, 3404.050): 0% | Braceroot Deformation 3-4 WAA (0-10 scale) (AAD1 (v3) event lines; IN, 3404.050): 0 | %Leaning 2 DAA (0-100 scale) (AAD1 (v3) event lines; IN, 3404.053): 1% | Braceroot Deformation 3-4 WAA (0-10 scale) (AAD1 (v3) event lines; IN, 3404.053): 0 | %Leaning 2 DAA (0-100 scale) (AAD1 (v3) event lines; IN, 3404.074): 0% | Braceroot Deformation 3-4 WAA (0-10 scale) (AAD1 (v3) event lines; IN, 3404.074): 0 | %Leaning 2 DAA (0-100 scale) (AAD1 (v3) event lines; IN, 3404.082): 0% | Braceroot Deformation 3-4 WAA (0-10 scale) (AAD1 (v3) event lines; IN, 3404.082): 0 | %Leaning 2 DAA (0-100 scale) (Non-transformed hybrids; HI, CROPLAN 585SR): 33% | Braceroot Deformation 3-4 WAA (0-10 scale) (Non-transformed hybrids; HI, CROPLAN 585SR): 9 | %Leaning 2 DAA (0-100 scale) (Non-transformed hybrids; HI, DK493): 23% | Braceroot Deformation 3-4 WAA (0-10 scale) (Non-transformed hybrids; HI, DK493): 9 | %Leaning 2 DAA (0-100 scale) (Non-transformed hybrids; HI, HI-II X 5XH571): 34% | Braceroot Deformation 3-4 WAA (0-10 scale) (Non-transformed hybrids; HI, HI-II X 5XH571): 9 | %Leaning 2 DAA (0-100 scale) (Non-transformed hybrids; IN, CROPLAN 585SR): 11% | Braceroot Deformation 3-4 WAA (0-10 scale) (Non-transformed hybrids; IN, CROPLAN 585SR): 9 | %Leaning 2 DAA (0-100 scale) (Non-transformed hybrids; IN, DK493): 20% | Braceroot Deformation 3-4 WAA (0-10 scale) (Non-transformed hybrids; IN, DK493): 8 | %Leaning 2 DAA (0-100 scale) (Non-transformed hybrids; IN, HI-II X 5XH571): 13% | Braceroot Deformation 3-4 WAA (0-10 scale) (Non-transformed hybrids; IN, HI-II X 5XH571): 7

CC(Oc1ccc(F)cc1Cl)C(=O)O (racemic) [(R,S)-2-chloro, 4-fluorophenoxy-proprionate]
A510, AAD1 (AAD1 (v1); Table 3, 15 min): 0.304 | A510, AAD1 (10x) (AAD1 (v1); Table 3, 15 min): 2.358

Nc1c(Cl)ccc(OCC(=O)O)c1Cl [compound 11263526]
A510, AAD1 (AAD1 (v1); Table 3, 15 min): 0.004 | A510, AAD1 (10x) (AAD1 (v1); Table 3, 15 min): 0.069

CC(C)COC(=O)COc1ccc(Cl)cc1Cl [compound 190252]
A510, AAD1 (AAD1 (v1); Table 3, 15 min): 0.008 | A510, AAD1 (10x) (AAD1 (v1); Table 3, 15 min): 0.211

O=C(O)COc1ccc(Cl)c2cccnc12 [Cloquintocet]
activity of purified AAD1 (v1) on substrate (AAD1 (v1); 1 mM substrate, 1 or 10 μg enzyme): no activity | A510, AAD1 (AAD1 (v1); Table 4): 0 | A510, AAD1 (10x) (AAD1 (v1); Table 4): 0.001

CC(Oc1ccc(Oc2ncc(Cl)cc2Cl)cc1)C(=O)O (racemic) [(R,S)- chlorazifop]
A510, AAD1 (AAD1 (v1); Table 4): 0.128 | A510, AAD1 (10x) (AAD1 (v1); Table 4): 1.584

O=C(O)COc1cc(F)c(Cl)cc1Cl [5-F, 2,4-D]
rate of product formation relative to 2,4-D (AAD1 (v1); 1 mM, 27 μg crude recombinant AAD1 (v1) per assay): 32% | A510 (AAD1 (v1); Table 8, 1 mM, 27 μg crude recombinant AAD1 (v1) extract from E. coli): 0.056 | % 2,4-D (AAD1 (v1); Table 8, relative to 2,4-D, crude AAD1 (v1) extract): 32%

O=S(=O)([O-])OCCOc1ccc(Cl)cc1Cl.[Na+] [sesone]
A510, AAD1 (AAD1 (v1); Table 3, 15 min): 0.02 | A510, AAD1 (10x) (AAD1 (v1); Table 3, 15 min): 0.177

CC(Oc1ccc(Oc2nc3ccc(Cl)cc3s2)cc1)C(=O)O (racemic) [(R,S)- fenthiaprop]
A510, AAD1 (AAD1 (v1); Table 4): 0.199 | A510, AAD1 (10x) (AAD1 (v1); Table 4): 1.055
